Data as given in ChEMBL document CHEMBL1201862, “PubChem BioAssay data set” (2004).
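Exposure lasted 48 hours, with cells grown in 96-well plates and compounds tested at five concentrations. GI50: concentration for 50% inhibition of growth.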 Active and inactive are the calls of the source. No stated cut-off is given here; in the data, active = GI50 up to about 1.1 µM and inactive = higher.

Assays:
Test in all cases: NCI tumour cell line growth inhibition, 48 h
[1] = system: OVCAR-4
[2] = system: MCF7
[3] = system: RXF 393
[4] = system: RPMI-8226
[5] = system: SK-OV-3
[6] = system: SNB-75
[7] = system: SNB-19
[8] = system: CCRF-CEM
[9] = system: COLO 205
[10] = system: MDA-N
[11] = system: NCI-H23
[12] = system: ACHN
[13] = system: U-251
[14] = system: K562
[15] = system: PC-3
[16] = system: M14
[17] = system: OVCAR-8
[18] = system: Hs-578T
[19] = system: Malme-3M
[20] = system: SF-268

Structure (SMILES)	GI50 [1]	GI50 [2]	GI50 [3]	GI50 [4]	GI50 [5]	GI50 [6]	GI50 [7]	GI50 [8]	GI50 [9]	GI50 [10]	GI50 [11]	GI50 [12]	GI50 [13]	GI50 [14]	GI50 [15]	GI50 [16]	GI50 [17]	GI50 [18]	GI50 [19]	GI50 [20]
N#CC(NNC(=O)c1c(Cl)c(Cl)c(Cl)c(Cl)c1-c1nc2cc(C(=O)c3ccccc3)ccc2[nH]1)c1cccc(Oc2ccccc2)c1 (centres undefined)	18.6 µM (inactive)	20.3 µM (inactive)	16.9 µM (inactive)	34.8 µM (inactive)	33.8 µM (inactive)	23.7 µM (inactive)	26.6 µM (inactive)	15.6 µM (inactive)	20.8 µM (inactive)	15.4 µM (inactive)	26.4 µM (inactive)	25.6 µM (inactive)	23.4 µM (inactive)	27.5 µM (inactive)	18.8 µM (inactive)	25.6 µM (inactive)	41.6 µM (inactive)			
COc1nc(SC)nc2c1C(O)n1c(nc3ccccc31)S2 (centres undefined)	17.4 µM (inactive)	1.84 µM (inactive)		0.42 µM (active)	22.8 µM (inactive)		25.2 µM (inactive)	2.32 µM (inactive)		40.4 µM (inactive)	19.5 µM (inactive)	18.4 µM (inactive)	10.6 µM (inactive)	13.7 µM (inactive)	19.3 µM (inactive)	60.4 µM (inactive)	14.1 µM (inactive)	16 µM (inactive)	40 µM (inactive)	18.4 µM (inactive)
Nc1ncnc2c1ncn2[C@@H]1C[C@@H]1CO		> 100 µM (inactive)		> 100 µM (inactive)			> 100 µM (inactive)	> 100 µM (inactive)		> 100 µM (inactive)	> 100 µM (inactive)	> 100 µM (inactive)	> 100 µM (inactive)	> 100 µM (inactive)	> 100 µM (inactive)		> 100 µM (inactive)	> 100 µM (inactive)	> 100 µM (inactive)	
Cc1cc2[nH]c3[nH]c(=O)[nH]c(=O)c3c2cc1C		> 100 µM (inactive)	> 100 µM (inactive)	> 100 µM (inactive)	> 100 µM (inactive)	> 100 µM (inactive)	89.3 µM (inactive)	> 100 µM (inactive)	> 100 µM (inactive)	> 100 µM (inactive)	> 100 µM (inactive)	> 100 µM (inactive)				> 100 µM (inactive)	> 100 µM (inactive)	69 µM (inactive)	> 100 µM (inactive)	> 100 µM (inactive)
Cc1ncc(CSC(=N)N)n1Cc1ccccc1	83 µM (inactive)	39.5 µM (inactive)	7.78 µM (inactive)	27.5 µM (inactive)	> 100 µM (inactive)		> 100 µM (inactive)		33.1 µM (inactive)	38.2 µM (inactive)	65.8 µM (inactive)	> 100 µM (inactive)	> 100 µM (inactive)	66.8 µM (inactive)	> 100 µM (inactive)	48.1 µM (inactive)	> 100 µM (inactive)	95.7 µM (inactive)	54.5 µM (inactive)	> 100 µM (inactive)
S=C(Nc1ccc(Cl)cc1)c1ccc(CN2CCCCC2)s1	12.5 µM (inactive)	13.9 µM (inactive)		3.02 µM (inactive)				3.17 µM (inactive)	2.68 µM (inactive)	2.94 µM (inactive)	3.35 µM (inactive)	4.93 µM (inactive)	10.1 µM (inactive)	2.09 µM (inactive)	18.5 µM (inactive)	4.09 µM (inactive)	4.22 µM (inactive)	37.9 µM (inactive)		36.3 µM (inactive)
C=C1C(C2(C)C(OC(C)=O)CC(=O)OC(C)(COC(C)=O)C2CC(=O)OC)C(OC=O)C(OC(=O)C(O)C(C)CC)C2(C)C(c3ccoc3)CC(=O)C12O (centres undefined)	6.28 µM (inactive)	> 25.5 µM (inactive)	2.7 µM (inactive)	> 100 µM (inactive)	0.78 µM (active)	3.57 µM (inactive)		0.65 µM (active)	3.66 µM (inactive)	7.26 µM (inactive)	> 73.5 µM (inactive)	4.2 µM (inactive)	3.86 µM (inactive)	4.49 µM (inactive)	5.52 µM (inactive)	> 23.8 µM (inactive)	10.2 µM (inactive)	8.05 µM (inactive)		3.72 µM (inactive)
Nc1ccc2c(c1)Cc1ccccc1-2	> 100 µM (inactive)	> 100 µM (inactive)	48.1 µM (inactive)		> 100 µM (inactive)	31.6 µM (inactive)	> 100 µM (inactive)	23.6 µM (inactive)	> 100 µM (inactive)	> 100 µM (inactive)	47.6 µM (inactive)	95.1 µM (inactive)	> 100 µM (inactive)	84.1 µM (inactive)	64.9 µM (inactive)	> 100 µM (inactive)	> 100 µM (inactive)	> 100 µM (inactive)	> 100 µM (inactive)	
COc1cc(/C=C2\N=C(c3ccccc3)N(/N=C3\C(=O)Nc4ccccc43)C2=O)cc(OC)c1OC	61.9 µM (inactive)	> 100 µM (inactive)	> 100 µM (inactive)		> 100 µM (inactive)	> 100 µM (inactive)	> 100 µM (inactive)	37.1 µM (inactive)	57.4 µM (inactive)	42.3 µM (inactive)	86.1 µM (inactive)	> 100 µM (inactive)	> 100 µM (inactive)	> 100 µM (inactive)	> 100 µM (inactive)	> 100 µM (inactive)	94.2 µM (inactive)	54 µM (inactive)	58.5 µM (inactive)	66.4 µM (inactive)
CC(C)C(/C=C/c1ccc(Cl)c(Cl)c1)=N\NC(=O)N/N=C(/C=C/c1ccc(Cl)c(Cl)c1)C(C)C	> 100 µM (inactive)	> 100 µM (inactive)		> 100 µM (inactive)	> 100 µM (inactive)	> 100 µM (inactive)	> 100 µM (inactive)	> 100 µM (inactive)	> 100 µM (inactive)	> 100 µM (inactive)	> 100 µM (inactive)	> 100 µM (inactive)	> 100 µM (inactive)	> 100 µM (inactive)	> 100 µM (inactive)	> 100 µM (inactive)	> 100 µM (inactive)	> 100 µM (inactive)	> 100 µM (inactive)	> 100 µM (inactive)
CCOC(=O)c1c(C)n(C)c2c1cc(O)c1[nH]c3c(c12)CCCC3	10.8 µM (inactive)	2.71 µM (inactive)		3.93 µM (inactive)	29.4 µM (inactive)		38.4 µM (inactive)	20.3 µM (inactive)	10.8 µM (inactive)	15.6 µM (inactive)	21 µM (inactive)	27.4 µM (inactive)	18.2 µM (inactive)	17.3 µM (inactive)	18.3 µM (inactive)	13.2 µM (inactive)	21 µM (inactive)	32.7 µM (inactive)	7.66 µM (inactive)	2 µM (inactive)
Cc1ccc(S(=O)(=O)CNC(=O)C(O)(O)C(F)(F)F)cc1	> 100 µM (inactive)	> 100 µM (inactive)	> 100 µM (inactive)	> 100 µM (inactive)	> 100 µM (inactive)		> 100 µM (inactive)	> 100 µM (inactive)	> 100 µM (inactive)	> 100 µM (inactive)	> 100 µM (inactive)		> 100 µM (inactive)	> 100 µM (inactive)	> 100 µM (inactive)	> 100 µM (inactive)	> 100 µM (inactive)	> 100 µM (inactive)	> 100 µM (inactive)	> 100 µM (inactive)
NC(C(=O)O)C(N)C(=O)O (centres undefined)	> 100 µM (inactive)	> 100 µM (inactive)	> 100 µM (inactive)	> 100 µM (inactive)	> 100 µM (inactive)		> 100 µM (inactive)		> 100 µM (inactive)	> 100 µM (inactive)	> 100 µM (inactive)	> 100 µM (inactive)	> 100 µM (inactive)	> 100 µM (inactive)	> 100 µM (inactive)	> 100 µM (inactive)	> 100 µM (inactive)	> 100 µM (inactive)	> 100 µM (inactive)	> 100 µM (inactive)
Cc1ccc(C2=NN=C3C(c4ccccc4)=Nc4ccccc4N3C2)cc1	3.18 µM (inactive)	8.38 µM (inactive)	4.41 µM (inactive)	5.98 µM (inactive)	21 µM (inactive)		16.9 µM (inactive)	1.88 µM (inactive)	9.77 µM (inactive)	32.9 µM (inactive)	25.7 µM (inactive)	16.7 µM (inactive)	6.49 µM (inactive)	4.61 µM (inactive)	11.8 µM (inactive)	3.64 µM (inactive)	6.07 µM (inactive)	9.16 µM (inactive)	5.38 µM (inactive)	4.49 µM (inactive)
CN(C)CCNC1=CC(=O)c2nc3ccccc3c3ccnc1c23	3.57 µM (inactive)	3.75 µM (inactive)		5.47 µM (inactive)	10.1 µM (inactive)	13.1 µM (inactive)	5.01 µM (inactive)	3.88 µM (inactive)	2.75 µM (inactive)	7.78 µM (inactive)	5.56 µM (inactive)	3.05 µM (inactive)	8.26 µM (inactive)	1.19 µM (inactive)	3.36 µM (inactive)	7.6 µM (inactive)	4.36 µM (inactive)	4.95 µM (inactive)	3 µM (inactive)	4.53 µM (inactive)
CCOc1cc(NC(C)=O)ccc1C(=O)NN1C(=O)C(Oc2ccccc2)C1c1ccc(O)c(OC)c1 (centres undefined)	31.3 µM (inactive)	39.5 µM (inactive)	24.3 µM (inactive)	25.5 µM (inactive)	> 100 µM (inactive)	44.6 µM (inactive)	> 100 µM (inactive)	22.5 µM (inactive)	30.3 µM (inactive)	33.6 µM (inactive)	30.8 µM (inactive)	93.5 µM (inactive)	48.9 µM (inactive)	31.3 µM (inactive)	35.2 µM (inactive)	52.1 µM (inactive)	22.1 µM (inactive)			
